Data taken from ChEMBL document CHEMBL1127696, “Non-peptide renin inhibitors containing 2-(((3-phenylpropyl)phosphoryl)oxy)alkanoic acid moieties as P2-P3 replacements” (J Med Chem, 1994).

Experiments:
Pepsin A = Pepsin A (Sus scrofa, UniProt P00791); assay: In vitro inhibition of porcine pepsin.
Renin = target: T1, Renin (Homo sapiens, UniProt P00797); assay: In vitro inhibition of human renin.
T1 sequence (P00797 whole entry): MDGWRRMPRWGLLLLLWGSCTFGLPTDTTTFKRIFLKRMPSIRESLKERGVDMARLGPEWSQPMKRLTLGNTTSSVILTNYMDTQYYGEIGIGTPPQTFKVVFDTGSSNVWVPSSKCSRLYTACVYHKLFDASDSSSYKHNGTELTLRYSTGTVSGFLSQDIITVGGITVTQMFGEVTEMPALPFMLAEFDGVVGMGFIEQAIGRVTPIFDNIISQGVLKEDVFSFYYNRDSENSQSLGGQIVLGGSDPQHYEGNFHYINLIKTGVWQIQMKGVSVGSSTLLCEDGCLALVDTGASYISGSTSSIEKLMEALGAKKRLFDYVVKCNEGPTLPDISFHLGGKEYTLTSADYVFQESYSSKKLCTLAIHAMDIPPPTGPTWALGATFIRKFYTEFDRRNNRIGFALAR

Cathepsin D = target: T2, Cathepsin D (Bos taurus, UniProt P80209); assay: In vitro inhibition of bovine cathepsin D.
T2 sequence (P80209 whole entry): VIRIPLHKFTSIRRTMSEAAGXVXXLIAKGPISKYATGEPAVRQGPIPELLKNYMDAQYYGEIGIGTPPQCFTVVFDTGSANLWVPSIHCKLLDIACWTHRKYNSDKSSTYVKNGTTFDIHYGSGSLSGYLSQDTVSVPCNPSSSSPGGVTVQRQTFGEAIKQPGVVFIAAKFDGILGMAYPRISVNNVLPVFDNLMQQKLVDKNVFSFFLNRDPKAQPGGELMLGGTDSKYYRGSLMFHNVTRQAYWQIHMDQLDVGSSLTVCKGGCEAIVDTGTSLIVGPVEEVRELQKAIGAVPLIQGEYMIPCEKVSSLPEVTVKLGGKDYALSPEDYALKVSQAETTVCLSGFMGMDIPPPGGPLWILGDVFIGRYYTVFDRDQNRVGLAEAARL

Sequence of Pepsin A (P00791 whole entry): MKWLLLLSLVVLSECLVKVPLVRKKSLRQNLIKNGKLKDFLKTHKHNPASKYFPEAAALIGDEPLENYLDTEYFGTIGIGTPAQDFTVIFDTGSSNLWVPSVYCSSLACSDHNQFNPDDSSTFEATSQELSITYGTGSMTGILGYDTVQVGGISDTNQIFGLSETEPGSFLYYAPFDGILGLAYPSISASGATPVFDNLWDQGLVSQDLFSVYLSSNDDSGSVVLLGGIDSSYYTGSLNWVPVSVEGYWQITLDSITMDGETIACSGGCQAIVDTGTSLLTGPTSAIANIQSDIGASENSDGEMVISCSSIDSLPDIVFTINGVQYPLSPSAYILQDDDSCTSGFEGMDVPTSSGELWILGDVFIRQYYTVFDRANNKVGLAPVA

## CCCCNC(=O)[C@H](C)C[C@H](O)[C@H](CC1CCCCC1)NC(=O)[C@@H](C)OP(=O)(O)CCCc1ccccc1
Pepsin A
  IC50: > 10000 nM
Renin
  IC50: 16 nM
Cathepsin D
  IC50: > 10000 nM

## CCCCNC(=O)[C@H](C)C[C@H](O)[C@H](CC1CCCCC1)NC(=O)[C@@H](CCC)OP(=O)(O)CCCc1ccccc1
Pepsin A
  IC50: > 10000 nM
Renin
  IC50: 3.8 nM
Cathepsin D
  IC50: > 10000 nM

## CCCC[C@H](OP(=O)(O)CCCc1ccccc1)C(=O)N[C@@H](CC1CCCCC1)[C@@H](O)C(O)CC(C)C (stereo partly drawn)
Pepsin A
  IC50: > 10000 nM
Renin
  IC50: 25 nM
Cathepsin D
  IC50: > 10000 nM

## CCCCNC(=O)[C@@H](C)C[C@@H](O)[C@@H](CC1CCCCC1)NC(=O)[C@H](CCCC)OP(=O)(O)CCCCc1ccccc1
Pepsin A
  IC50: > 10000 nM
Renin
  IC50: 360 nM
Cathepsin D
  IC50: > 10000 nM

## CCCCNC(=O)[C@H](C)C[C@H](O)[C@H](CC1CCCCC1)NC(=O)[C@H](CCCC)OP(=O)(O)CCCc1ccccc1
Pepsin A
  IC50: > 10000 nM
Renin
  IC50: 2.5 nM
Cathepsin D
  IC50: > 10000 nM

## CCCCNC(=O)[C@H](C)C[C@H](O)[C@H](CC1CCCCC1)NC(=O)[C@H](C)OP(=O)(O)CCCc1ccccc1
Pepsin A
  IC50: > 10000 nM
Renin
  IC50: 17.5 nM
Cathepsin D
  IC50: > 10000 nM

## CCCC[C@H](OP(=O)(O)CCCc1ccccc1)C(=O)N[C@@H](CC1CCCCC1)[C@@H](O)CCSc1ccccn1
Pepsin A
  IC50: > 10000 nM
Renin
  IC50: 115 nM
Cathepsin D
  IC50: > 10000 nM

## CCCC[C@H](OP(=O)(O)CCCc1ccccc1)C(=O)N[C@@H](CC1CCCCC1)[C@@H](O)C(=O)OC(C)C
Pepsin A
  IC50: > 10000 nM
Renin
  IC50: 55 nM
Cathepsin D
  IC50: > 10000 nM

## CCCC[C@H](OP(=O)(O)CCCc1ccccc1)C(=O)N[C@@H](CC1CCCCC1)[C@@H](O)CC(=O)N[C@@H](C(=O)NCc1cnc(C)nc1N)[C@@H](C)CC
Pepsin A
  IC50: > 10000 nM
Renin
  IC50: 58 nM
Cathepsin D
  IC50: > 10000 nM

## CCCCNC(=O)[C@@H](C)C[C@@H](O)[C@@H](CC1CCCCC1)NC(=O)[C@H](CCCC)OP(=O)(O)CCc1ccccc1
Pepsin A
  IC50: > 10000 nM
Renin
  IC50: 46 nM
Cathepsin D
  IC50: > 10000 nM

## CCCCNC(=O)[C@@H](C)C[C@@H](O)[C@@H](CC1CCCCC1)NC(=O)[C@H](CCCC)OP(=O)(O)CCCc1ccccc1
Pepsin A
  IC50: > 10000 nM
Renin
  IC50: 4.8 nM
Cathepsin D
  IC50: > 10000 nM

## CCCCNC(=O)[C@H](C)C[C@H](O)[C@H](CC1CCCCC1)NC(=O)[C@H](CCC)OP(=O)(O)CCCc1ccccc1
Pepsin A
  IC50: > 10000 nM
Renin
  IC50: 4.2 nM
Cathepsin D
  IC50: > 10000 nM

## CCCCNC(=O)[C@@H](C[C@H](O)[C@H](CC(C)C)NC(=O)[C@H](CCCC)OP(=O)(O)CCCc1ccccc1)C(C)C
Pepsin A
  IC50: 10000 nM
Renin
  IC50: 2.8 nM
Cathepsin D
  IC50: 2300 nM

## CCCCNC(=O)[C@H](C)C[C@H](O)[C@H](CC1CCCCC1)NC(=O)[C@@H](CCCC)OP(=O)(CCCc1ccccc1)OCC (stereo in doubt; 7i)
Pepsin A
  IC50: > 10000 nM
Renin
  IC50: 22.5 nM
Cathepsin D
  IC50: > 10000 nM

## CCCCNC(=O)[C@H](C)C[C@H](O)[C@H](CC1CCCCC1)NC(=O)[C@@H](CCCC)OP(=O)(CCCc1ccccc1)OCC (stereo in doubt; 7j)
Pepsin A
  IC50: > 10000 nM
Renin
  IC50: 350 nM
Cathepsin D
  IC50: > 10000 nM

## CCCCNC(=O)[C@H](C)C[C@H](O)[C@H](CC1CCCCC1)NC(=O)[C@H](CCCC)OP(=O)(CCCc1ccccc1)OCC (stereo in doubt; 7k)
Pepsin A
  IC50: > 10000 nM
Renin
  IC50: 15 nM
Cathepsin D
  IC50: 2800 nM

## CCCCNC(=O)[C@H](C)C[C@H](O)[C@H](CC1CCCCC1)NC(=O)[C@H](CCCC)OP(=O)(CCCc1ccccc1)OCC (stereo in doubt; 7l)
Pepsin A
  IC50: > 10000 nM
Renin
  IC50: 215 nM
Cathepsin D
  IC50: > 10000 nM

## CCC[C@@H](OP(=O)(CCCc1ccccc1)OCC)C(=O)N[C@@H](CC1CCCCC1)[C@@H](O)[C@@H](O)CC(C)C (stereo in doubt; 8f)
Pepsin A
  IC50: > 10000 nM
Renin
  IC50: 17.7 nM
Cathepsin D
  IC50: 2150 nM

## CCC[C@@H](OP(=O)(CCCc1ccccc1)OCC)C(=O)N[C@@H](CC1CCCCC1)[C@@H](O)[C@@H](O)CC(C)C (stereo in doubt; 8g)
Pepsin A
  IC50: > 10000 nM
Renin
  IC50: 130 nM
Cathepsin D
  IC50: > 10000 nM

## CCC[C@@H](OP(=O)(CCCc1ccccc1)OCC)C(=O)N[C@@H](CC1CCCCC1)[C@@H](O)[C@@H](O)C1CC1 (stereo in doubt; 8h)
Pepsin A
  IC50: > 10000 nM
Renin
  IC50: 20 nM
Cathepsin D
  IC50: 4150 nM

## CCC[C@@H](OP(=O)(CCCc1ccccc1)OCC)C(=O)N[C@@H](CC1CCCCC1)[C@@H](O)[C@@H](O)C1CC1 (stereo in doubt; 8i)
Pepsin A
  IC50: > 10000 nM
Renin
  IC50: 155 nM
Cathepsin D
  IC50: > 10000 nM
